Values quoted from earlier work in US20200000750A1, “Composition for Treating Acute and Chronic Pain” (priority 2018, published 2020).

Key:
[1] = system: mitosis, spindle formation; details: for antagonism of colchicine: literature (Benitez et al. 1954); for antimitotic effect (mitotic or spindle poison): literature
acute attacks of gout = details: literature; colchiceine at 5 to 8 mg orally
[2] = literature
humans = details: with the doses mentioned
granulocytopoiesis = details: animals and humans; compared with colchicine
spermatogenesis = details: in vivo

In the case of O=C(CCc1ccc(O)cc1)c1c(O)cc(O)cc1O[C@@H]1O[C@H](CO)[C@@H](O)[C@H](O)[C@H]1O [Phlorizine], the “increase of the antimitotic effect of colchicine (synergist)” value ([1]; literature (H. R. Littre, et al. 1951)) is given as “eight times”.

For COc1c(O[C@@H]2O[C@H](CO)[C@@H](O)[C@H](O)[C@H]2O)cc2c(c1OC)-c1ccc(OC)c(=O)cc1[C@@H](NC(C)=O)CC2 [colchicoside], the “anti-gout effect in acute attacks of gout” value (“anti-gout effect” for short) (acute attacks of gout) is given as “equivocal results”.

For O[C@H]1[C@H](O)[C@@H](O)[C@H](O)[C@@H](O)[C@H]1O [mesoinosital], the antagonism of colchicine [1] is listed as “potent antagonist of colchicine”.

For COc1cc2c(c(OC)c1OC)-c1ccc(=O)c(OC)cc1[C@@H](NC(C)=O)CC2 [Iso-colchicine], the “anti-gout effect” value (acute attacks of gout) is listed as “little or no anti-gout effects”, the “antimitotic effect (mitotic or spindle poison)” value [1] is listed as “relatively ineffective as mitotic poisons” and the toxicity [2] is listed as “relatively nontoxic”.

For CN[C@H]1CCc2cc(OC)c(OC)c(OC)c2-c2ccc(OC)c(=O)cc21 [Desacetylmethylcolchicine], the alopecia (humans) is listed as “temporary total alopecia”, the loss of feathers (birds) is listed as “loss of feathers” and the effect on granulocytopoiesis (granulocytopoiesis) is listed as “very depressing effect on granulocytopoiesis, much greater than colchicine”. The effect on spermatogenesis (spermatogenesis) was “Impairment of spermatogenesis”.

In the case of O=c1cccccc1O [tropolone], the “antimitotic effect (mitotic or spindle poison)” value [1] is listed as “not a spindle poison but rather favors the formation of the spindle” and the antagonism of colchicine [1] is listed as “potent antagonist of colchicine”.

For COc1cc2c(c(OC)c1OC)-c1ccc(OC)c(=O)cc1[C@@H](NC(C)=O)CC2 [Colchicine, colchicine], the “anti-gout effect” value (acute attacks of gout) is given as “dramatic relief of acute attacks of gout”.

In the case of COc1cc2c(c(OC)c1OC)-c1ccc(=O)c(O)cc1[C@@H](NC(C)=O)CC2 [colchiceine], the “anti-gout effect” value (acute attacks of gout) is listed as “no anti-gout effects”, the “antimitotic effect (mitotic or spindle poison)” value [1] is listed as “very weak antimitotic” and the diarrheal effect [2] is listed as “very weak”.
